Measurements reported in patent publication US10363239B2, “Method for inhibiting growth of cancer cells” (Pain Therapeutics, Inc., priority 2013, dated 2019).

tested on: mu opiate receptor (MOR); test: MOR agonist activity using [35S]GTPγS binding assay in striatal membranes; type: biochemical; conditions: 0.1 μM compound
Method in brief: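 Striatal membranes (200 μg) were preincubated 5 min at 30 °C in HEPES pH 7.5 with 100 mM NaCl, 1 mM MgCl2 and 0.5 nM [35S]GTPγS, then 5 min more with 0.1–10 μM compound. Gαo was immunoprecipitated and bound radioactivity counted by scintillation.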

Compound | MOR agonist activity ([35S]GTPγS binding), FLNA-Binding Compound as Agonist 0.1 μM
COc1ccc(OCC(O)CN2CCc3cc4c(c(OC)c3C2)OCO4)cc1 (stereo not drawn) [Compound A0070] | 128.6%

same assay, conditions: 0.1 μM compound relative to DAMGO

Compound | % DAMGO (0.1 μM)
COc1ccc(OCC(O)CN2CCc3cc4c(c(OC)c3C2)OCO4)cc1 (stereo not drawn) [Compound A0070] | 74.7%

same assay, conditions: 1 μM compound

Compound | MOR agonist activity ([35S]GTPγS binding), FLNA-Binding Compound as Agonist 1 μM
COc1ccc(OCC(O)CN2CCc3cc4c(c(OC)c3C2)OCO4)cc1 (stereo not drawn) [Compound A0070] | 195.3%

same assay, conditions: 1 μM compound + 1 μM β-funaltrexamine

Compound | MOR agonist activity ([35S]GTPγS binding), FLNA-Binding Compound as Agonist 1 μM + BFNA
COc1ccc(OCC(O)CN2CCc3cc4c(c(OC)c3C2)OCO4)cc1 (stereo not drawn) [Compound A0070] | 80.3%

same assay, conditions: 1 μM compound + BFNA relative to DAMGO + BFNA

Compound | % DAMGO + BFNA
COc1ccc(OCC(O)CN2CCc3cc4c(c(OC)c3C2)OCO4)cc1 (stereo not drawn) [Compound A0070] | 232.8%

same assay, conditions: 1 μM compound relative to DAMGO

Compound | % DAMGO (1 μM)
COc1ccc(OCC(O)CN2CCc3cc4c(c(OC)c3C2)OCO4)cc1 (stereo not drawn) [Compound A0070] | 88.9%

same assay, conditions: Series B; 0.1 μM compound, relative to DAMGO

Compound | % DAMGO (0.1 μM)
COc1cccc(OC)c1CC(=O)CC1c2c(cc3c(c2OC)OCO3)CC[N+]1(C)C (stereo not drawn) [Compound B0036] | 39.2%
COc1ccc(OC)c(CCC(=O)CC2c3c(cc4c(c3OC)OCO4)CC[N+]2(C)C)c1 (stereo not drawn) [Compound B0044] | 49.4%
COc1c2c(cc3c1C(CC(O)CCc1ccccc1)[N+](C)(C)CC3)OCO2 (stereo not drawn) [Compound B0052] | 58.1%

same assay, conditions: Series B; 0.1 μM compound; [35S]GTPγS binding to Gαo, striatal membranes

Compound | MOR agonist activity, percent [35S]GTPγS binding at the stated compound concentration
COc1cccc(OC)c1CC(=O)CC1c2c(cc3c(c2OC)OCO3)CC[N+]1(C)C (stereo not drawn) [Compound B0036] | 61.4%
COc1ccc(OC)c(CCC(=O)CC2c3c(cc4c(c3OC)OCO4)CC[N+]2(C)C)c1 (stereo not drawn) [Compound B0044] | 87.3%
COc1c2c(cc3c1C(CC(O)CCc1ccccc1)[N+](C)(C)CC3)OCO2 (stereo not drawn) [Compound B0052] | 98.2%

same assay, conditions: Series B; 1 μM compound + 1 μM β-FNA

Compound | MOR agonist activity, percent [35S]GTPγS binding at the stated compound concentration
COc1cccc(OC)c1CC(=O)CC1c2c(cc3c(c2OC)OCO3)CC[N+]1(C)C (stereo not drawn) [Compound B0036] | 65.1%
COc1ccc(OC)c(CCC(=O)CC2c3c(cc4c(c3OC)OCO4)CC[N+]2(C)C)c1 (stereo not drawn) [Compound B0044] | 134.6%
COc1c2c(cc3c1C(CC(O)CCc1ccccc1)[N+](C)(C)CC3)OCO2 (stereo not drawn) [Compound B0052] | 40.9%

same assay, conditions: Series B; 1 μM compound + β-FNA, relative to DAMGO + BFNA

Compound | % DAMGO + BFNA
COc1cccc(OC)c1CC(=O)CC1c2c(cc3c(c2OC)OCO3)CC[N+]1(C)C (stereo not drawn) [Compound B0036] | 199.7%
COc1ccc(OC)c(CCC(=O)CC2c3c(cc4c(c3OC)OCO4)CC[N+]2(C)C)c1 (stereo not drawn) [Compound B0044] | 511.8%
COc1c2c(cc3c1C(CC(O)CCc1ccccc1)[N+](C)(C)CC3)OCO2 (stereo not drawn) [Compound B0052] | 246.4%

same assay, conditions: Series B; 1 μM compound, relative to DAMGO

Compound | % DAMGO (1 μM)
COc1cccc(OC)c1CC(=O)CC1c2c(cc3c(c2OC)OCO3)CC[N+]1(C)C (stereo not drawn) [Compound B0036] | 52.1%
COc1ccc(OC)c(CCC(=O)CC2c3c(cc4c(c3OC)OCO4)CC[N+]2(C)C)c1 (stereo not drawn) [Compound B0044] | 66.9%
COc1c2c(cc3c1C(CC(O)CCc1ccccc1)[N+](C)(C)CC3)OCO2 (stereo not drawn) [Compound B0052] | 69.3%

same assay, conditions: Series B; 1 μM compound; [35S]GTPγS binding to Gαo, striatal membranes

Compound | MOR agonist activity, percent [35S]GTPγS binding at the stated compound concentration
COc1cccc(OC)c1CC(=O)CC1c2c(cc3c(c2OC)OCO3)CC[N+]1(C)C (stereo not drawn) [Compound B0036] | 120.6%
COc1ccc(OC)c(CCC(=O)CC2c3c(cc4c(c3OC)OCO4)CC[N+]2(C)C)c1 (stereo not drawn) [Compound B0044] | 170.0%
COc1c2c(cc3c1C(CC(O)CCc1ccccc1)[N+](C)(C)CC3)OCO2 (stereo not drawn) [Compound B0052] | 151.7%

same assay, conditions: Series C-1; 0.1 μM compound, relative to DAMGO

Compound | % DAMGO (0.1 μM)
COc1ccc(C(=O)N2CCC3(CC2)OCCN3S(=O)(=O)c2ccc(OC)cc2)cc1 [Compound C0018] | 110.7%
COC(=O)c1ccc(S(=O)(=O)N2CCC3(CC2)OCCN3S(=O)(=O)c2ccc(C(=O)OC)cc2)cc1 [Compound C0028] | 55.6%
O=S(=O)(c1cccs1)N1CCC2(CC1)OCCN2S(=O)(=O)c1cccs1 [Compound C0141M] | 109.9%

same assay, conditions: Series C-1; 0.1 μM compound; [35S]GTPγS binding to Gαo, striatal membranes

Compound | Concentration of FLNA-Binding Compound as Agonist 0.1 μM
COc1ccc(C(=O)N2CCC3(CC2)OCCN3S(=O)(=O)c2ccc(OC)cc2)cc1 [Compound C0018] | 195.5%
COC(=O)c1ccc(S(=O)(=O)N2CCC3(CC2)OCCN3S(=O)(=O)c2ccc(C(=O)OC)cc2)cc1 [Compound C0028] | 93.9%
O=S(=O)(c1cccs1)N1CCC2(CC1)OCCN2S(=O)(=O)c1cccs1 [Compound C0141M] | 161.5%

same assay, conditions: Series C-1; 1 μM compound + 1 μM β-FNA

Compound | Concentration of FLNA-Binding Compound as Agonist 1 μM + BFNA
COc1ccc(C(=O)N2CCC3(CC2)OCCN3S(=O)(=O)c2ccc(OC)cc2)cc1 [Compound C0018] | 106.5%
COC(=O)c1ccc(S(=O)(=O)N2CCC3(CC2)OCCN3S(=O)(=O)c2ccc(C(=O)OC)cc2)cc1 [Compound C0028] | 78.4%
O=S(=O)(c1cccs1)N1CCC2(CC1)OCCN2S(=O)(=O)c1cccs1 [Compound C0141M] | 47.9%

same assay, conditions: Series C-1; 1 μM compound + β-FNA, relative to DAMGO + BFNA

Compound | % DAMGO + BFNA
COc1ccc(C(=O)N2CCC3(CC2)OCCN3S(=O)(=O)c2ccc(OC)cc2)cc1 [Compound C0018] | 162.1%
COC(=O)c1ccc(S(=O)(=O)N2CCC3(CC2)OCCN3S(=O)(=O)c2ccc(C(=O)OC)cc2)cc1 [Compound C0028] | 472.3%
O=S(=O)(c1cccs1)N1CCC2(CC1)OCCN2S(=O)(=O)c1cccs1 [Compound C0141M] | 121.9%

same assay, conditions: Series C-1; 1 μM compound, relative to DAMGO

Compound | % DAMGO (1 μM)
COc1ccc(C(=O)N2CCC3(CC2)OCCN3S(=O)(=O)c2ccc(OC)cc2)cc1 [Compound C0018] | 95.5%
COC(=O)c1ccc(S(=O)(=O)N2CCC3(CC2)OCCN3S(=O)(=O)c2ccc(C(=O)OC)cc2)cc1 [Compound C0028] | 60.5%
O=S(=O)(c1cccs1)N1CCC2(CC1)OCCN2S(=O)(=O)c1cccs1 [Compound C0141M] | 105.8%

same assay, conditions: Series C-1; 1 μM compound; [35S]GTPγS binding to Gαo, striatal membranes

Compound | Concentration of FLNA-Binding Compound as Agonist 1 μM
COc1ccc(C(=O)N2CCC3(CC2)OCCN3S(=O)(=O)c2ccc(OC)cc2)cc1 [Compound C0018] | 247.7%
COC(=O)c1ccc(S(=O)(=O)N2CCC3(CC2)OCCN3S(=O)(=O)c2ccc(C(=O)OC)cc2)cc1 [Compound C0028] | 132.4%
O=S(=O)(c1cccs1)N1CCC2(CC1)OCCN2S(=O)(=O)c1cccs1 [Compound C0141M] | 213.9%

molecular target: FLNA pentapeptide of SEQ ID NO: 1 (Bn-VAKGL) (Homo sapiens, UniProt P21333); test: FITC-NLX-based FLNA screening assay (inhibition of FITC-naloxone binding to Bn-VAKGL on streptavidin plates); conditions: FLNA-binding compound 0.01 μM; 10 nM FITC-NLX

Compound | Percent Binding Inhibition
COc1ccc(OCC(O)CN2CCc3cc4c(c(OC)c3C2)OCO4)cc1 (stereo not drawn) [Compound A0070] | 32.9%

same assay, conditions: FLNA-binding compound 0.01 μM; 10 nM FITC-NLX; read-out: Percent Binding Inhibition

Compound | inhibition at 0.01 µM
COc1ccc(C(=O)N2CCC3(CC2)OCCN3S(=O)(=O)c2ccc(OC)cc2)cc1 [Compound C0018] | 42.3%
COC(=O)c1ccc(S(=O)(=O)N2CCC3(CC2)OCCN3S(=O)(=O)c2ccc(C(=O)OC)cc2)cc1 [Compound C0028] | 32.2%

same assay, conditions: FLNA-binding compound 0.1 μM; 10 nM FITC-NLX

Compound | Percent Binding Inhibition
COc1ccc(OCC(O)CN2CCc3cc4c(c(OC)c3C2)OCO4)cc1 (stereo not drawn) [Compound A0070] | 39.1%

same assay, conditions: FLNA-binding compound 0.1 μM; 10 nM FITC-NLX; read-out: Percent Binding Inhibition

Compound | inhibition at 0.1 µM
COc1ccc(C(=O)N2CCC3(CC2)OCCN3S(=O)(=O)c2ccc(OC)cc2)cc1 [Compound C0018] | 45.9%
COC(=O)c1ccc(S(=O)(=O)N2CCC3(CC2)OCCN3S(=O)(=O)c2ccc(C(=O)OC)cc2)cc1 [Compound C0028] | 36.6%

same assay, conditions: FLNA-binding compound 1 μM; 10 nM FITC-NLX

Compound | Percent Binding Inhibition
COc1ccc(OCC(O)CN2CCc3cc4c(c(OC)c3C2)OCO4)cc1 (stereo not drawn) [Compound A0070] | 41.7%

same assay, conditions: FLNA-binding compound 1 μM; 10 nM FITC-NLX; read-out: Percent Binding Inhibition

Compound | inhibition at 1 µM
COc1ccc(C(=O)N2CCC3(CC2)OCCN3S(=O)(=O)c2ccc(OC)cc2)cc1 [Compound C0018] | 53.4%
COC(=O)c1ccc(S(=O)(=O)N2CCC3(CC2)OCCN3S(=O)(=O)c2ccc(C(=O)OC)cc2)cc1 [Compound C0028] | 43.3%

same assay, conditions: read-out: Percent Binding Inhibition, FLNA-binding compound 0.01 μM; 10 nM FITC-NLX

Compound | inhibition at 0.01 µM
COc1cccc(OC)c1CC(=O)CC1c2c(cc3c(c2OC)OCO3)CC[N+]1(C)C (stereo not drawn) [Compound B0036] | 46.6%
COc1ccc(OC)c(CCC(=O)CC2c3c(cc4c(c3OC)OCO4)CC[N+]2(C)C)c1 (stereo not drawn) [Compound B0044] | 35.2%
O=S(=O)(c1cccs1)N1CCC2(CC1)OCCN2S(=O)(=O)c1cccs1 [Compound C0141M] | 33.1%
COc1c2c(cc3c1C(CC(O)CCc1ccccc1)[N+](C)(C)CC3)OCO2 (stereo not drawn) [Compound B0052] | 30.2%

same assay, conditions: read-out: Percent Binding Inhibition, FLNA-binding compound 0.1 μM; 10 nM FITC-NLX

Compound | inhibition at 0.1 µM
COc1cccc(OC)c1CC(=O)CC1c2c(cc3c(c2OC)OCO3)CC[N+]1(C)C (stereo not drawn) [Compound B0036] | 52.8%
COc1ccc(OC)c(CCC(=O)CC2c3c(cc4c(c3OC)OCO4)CC[N+]2(C)C)c1 (stereo not drawn) [Compound B0044] | 39.5%
O=S(=O)(c1cccs1)N1CCC2(CC1)OCCN2S(=O)(=O)c1cccs1 [Compound C0141M] | 39%
COc1c2c(cc3c1C(CC(O)CCc1ccccc1)[N+](C)(C)CC3)OCO2 (stereo not drawn) [Compound B0052] | 39.1%

same assay, conditions: read-out: Percent Binding Inhibition, FLNA-binding compound 1 μM; 10 nM FITC-NLX

Compound | inhibition at 1 µM
COc1cccc(OC)c1CC(=O)CC1c2c(cc3c(c2OC)OCO3)CC[N+]1(C)C (stereo not drawn) [Compound B0036] | 62.1%
COc1ccc(OC)c(CCC(=O)CC2c3c(cc4c(c3OC)OCO4)CC[N+]2(C)C)c1 (stereo not drawn) [Compound B0044] | 44.4%
O=S(=O)(c1cccs1)N1CCC2(CC1)OCCN2S(=O)(=O)c1cccs1 [Compound C0141M] | 46.9%
COc1c2c(cc3c1C(CC(O)CCc1ccccc1)[N+](C)(C)CC3)OCO2 (stereo not drawn) [Compound B0052] | 44.3%
